Target: T1, human recombinant PDE9 protein (hsPDE9A1) (Homo sapiens, UniProt O76083)
T1 construct: made in house; host or cells: COS-1 cells (transient transfection, pcDNA 3.1(+))
Assay: Measurement of PDE9-inhibiting activity ([3H]-cGMP hydrolysis)
Type: biochemical
Conditions: for inhibition at 1 µM: human recombinant PDE9, read-out: Inhibiting Activity PDE9 (percent inhibition at 1 μM)
Experimental: (1) Measurement of PDE9-Inhibiting Activity:
1) Preparation of Human Recombinant PDE9 Protein
Based on the base sequence of hsPDE9A1 registered with GenBank database (accession No.: AF048837), hsPDE9A1 fragment was amplified by polymerase chain reaction under the following conditions, using the following sequence (Amasham Pharmacia Biotech) as the primer and Human Prostate […] cDNA library (CLONTECH) as the template DNA, with Pfu Turbo DNA polymerase ([…]):
PCR condition: [95° C., 5 min]×1 cycle, [(95° C., 1 min), (58° C., 2 min), (72° C., 3 min)]×25 cycles, [72° C., 10 min]×1 cycle
Thus obtained hsPDE9A1 fragment was given a restricted enzymatic treatment with NheI and NotI, and thereafter inserted into pcDNA 3.1(+) expression vector (Invitrogen) to let it serve as a human PDE9 expression vector.
Human PDE9 expression vector-transformed Escherichia coli was mass incubated to produce a large amount of human PDE9 expression vector, which was transiently transfected into COS-1 cells, with LIPOFECTAMINE 2000 Reagent (GIBCO). The cells were homogenized in ice-cooled buffer A (40 mmol/L Tris-HCl, pH7.5, 15 mmol/L benzamidine, 15 mmol/L 2-mercaptoethanol, 1 μg/mL Pepstatin A, 1 μg/mL Leupeptin, 5 mmol/L EDTA) and centrifuged at 4° C., 14,000×g for 10 minutes. The supernatant was isolated to provide human recombinant PDE9 protein solution.
2) Measurement of PDE9-Inhibiting Activity
To 150 μL of buffer B (70 mmol/L Tris-HCl, pH7.5; 16.7 mmol/L MgCl2, 33.3 nmol/L [^3H]-cGMP) solution containing [^3H]-cGMP (specific activity=244.2 GBq/mmol) at a concentration of 33.3 nmol/L, 50 μL of a solution of the compound to be evaluated (formed by dissolving the compound in DMSO and diluting it with distilled water to DMSO concentration of 5%) and 50 μL of the PDE9 protein solution as prepared in the above, as diluted with buffer C (40 mmol/L Tris-HCl, pH7.5, 15 mmol/L benzamidine, 15 mmol/L 2-mercaptoethanol, 1 μg/mL Pepstatin A, 1 μg/mL Leupeptin) by 1,500×, were added under cooling with ice. This mixed solution was incubated at 30° C. for 30 minutes and the enzymatic reaction of PDE9 was terminated by heating the system in boiling water for 90 seconds. Returning the system to room temperature, 50 μL of Snake venom (SIGMA: 1 mg/mL) was added, followed by 10 minutes' incubation at 30° C., to convert the [^3H]-5′-GMP produced in the previous reaction to [^3H]-guanosine. This reaction solution was passed through a column filled with 1 mL of 0.5 mol/L hydrochloric acid-activated cation-exchange resin (Bio-Rad AG50W-X4 resin, mesh size 200-400) and removed of the unreacted substrate ([^3H]-cGMP) by elution with 12 mL of distilled water. Thereafter [^3H]-guanosine was eluted with 3 mL of 3 mol/L aqueous ammonia and its radiation activity was measured with liquid scintillation counter.
PDE9 inhibition of the tested compound can be calculated by the following formula: […]
From the percent inhibition at various concentration levels of each tested compound, its IC50 value against PDE9 can be determined.

T1 sequence (O76083 whole entry): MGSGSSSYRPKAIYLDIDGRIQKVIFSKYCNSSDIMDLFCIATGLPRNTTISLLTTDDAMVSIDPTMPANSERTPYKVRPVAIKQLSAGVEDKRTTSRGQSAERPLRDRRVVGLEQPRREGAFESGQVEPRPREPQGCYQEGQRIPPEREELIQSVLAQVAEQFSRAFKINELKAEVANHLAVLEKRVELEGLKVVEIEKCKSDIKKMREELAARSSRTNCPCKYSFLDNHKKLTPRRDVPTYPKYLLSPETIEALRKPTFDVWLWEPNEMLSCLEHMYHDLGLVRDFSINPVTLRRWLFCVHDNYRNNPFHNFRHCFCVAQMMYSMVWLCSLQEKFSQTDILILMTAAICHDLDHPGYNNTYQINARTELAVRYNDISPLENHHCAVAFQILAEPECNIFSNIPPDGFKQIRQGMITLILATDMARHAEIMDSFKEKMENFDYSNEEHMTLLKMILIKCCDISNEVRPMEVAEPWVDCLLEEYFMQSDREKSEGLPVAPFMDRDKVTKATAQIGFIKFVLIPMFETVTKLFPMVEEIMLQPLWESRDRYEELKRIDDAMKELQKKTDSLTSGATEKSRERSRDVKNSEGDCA

Compound | inhibition at 1 µM | other results
COc1cccc(Cc2nc3cc(C(=O)O)ccc3c(=O)[nH]2)c1 [Example 5, 2-(3-Methoxybenzyl)-4-oxo-3,4-dihydroquinazoline-7-carboxylic acid] | 41% | 
COc1ccc(Cc2nc3cc(C(=O)O)ccc3c(=O)[nH]2)cc1OC [Example 3, 2-(3,4-Dimethoxybenzyl)-4-oxo-3,4-dihydroquinazoline-7-carboxylic acid] | 11% | 
O=C(O)c1ccc2c(=O)[nH]c(Cc3ccccn3)nc2c1 [Example 6, 4-Oxo-2-(2-pyridylmethyl)-3,4-dihydroquinazoline-7-carboxylic acid] |  | IC50 (human recombinant PDE9 expressed in COS-1 cells, 30° C., 30 minutes): 1360 nM
Cn1c(Cc2cccc(Cl)c2)nc2cc(C(=O)O)ccc2c1=O [Referential Example 1, 2-(3-Chlorobenzyl)-3-methyl-4-oxo-3,4-dihydroquinazoline-7-carboxylic acid, reference compound] |  | PDE9-inhibiting activity relative to that of the compound of Example 1 (ratio of activity versus Example 1): less than 1/100
O=C(O)c1ccc2c(=O)[nH]c(Cc3cccnc3)nc2c1 [Example 7, 4-Oxo-2-(3-pyridylmethyl)-3,4-dihydroquinazoline-7-carboxylic acid] | 30% | 

— patent US8101624B2, “Quinazoline derivatives” (Aska Pharmaceutical Co., Ltd., priority 2006, dated 2012)
